We go through 2 compounds from patent US6783947B1, “Protecting groups for biological labeling” (Dade Behring Marburg GmbH, priority 1999, dated 2004).

Counter-ions that a name gives are not always drawn.

Data set [1] in a line: Storage stability of derivatizing agent, monitored by total LOCI assay signal modulation (three-reagent protocol). Type of data set: physicochemical. As for the experimental part: A 50 μL mixture of hcy-ABA-sensitizer beads (0.1 mg/ml) and 2 mM TCEP is added to 5 μL hcy serum calibrator in a reaction cuvette, followed by the addition of 50 μL assay buffer. The mixture is incubated for 417 sec. Then, 50 μL of 5 mM BABA is added and followed by 45 μL assay buffer. Following incubation for 157 sec., 50 μL of Ab-coated acceptor beads (at 0.25-0.5 mg/ml) is added. After incubation for 154 sec., the sample is read.
In Table 2, the three-reagent protocol is used as described previously, with 5 mM BABA stored in a different pH buffer as R-2 (reagent 2).
The activity of BABA is monitored by the amount of total assay signal modulation obtained by LOCI using the three-reagent protocol.
The three-reagent assay protocol using CABA-phosphate as derivatizing agent is also assessed. Similar results are obtained with hcy serum calibrators as in the three-reagent protocol using BABA (not shown). The stability of CABA is also studied. The activity of CABA-phosphate as derivatizing agent is monitored by the amount of total assay signal modulation obtained by LOCI using the three-reagent protocol. In Table 3, the three-reagent assay protocol is used with CABA-phosphate stored at two temperatures in pH 9.0 as R-2; mixed hcy-sensitizer beads and TCEP as R-1; mixed Ab-acceptor beads and alkaline phosphatase as R-3.

Data set [2] in a line: Solubility. In kind it is physicochemical. To be noted: over a wide pH range.
Data set [3] concerns the target T1, alkaline phosphatase (Sigma, human placenta) (Homo sapiens, UniProt P05187).
T1 construct: alkaline phosphatase (Sigma, human placenta); purchased Sigma; host or cells: human placenta (tissue-derived)
Nature of the data set: Deprotection of phosphate protecting group by alkaline phosphatase (TLC, NMR). To be noted: mixture of BABA-phosphate and CABA-phosphate, 5 mg in 1 mL pH 8-9 NaOD/D2O, 1 mg (15 units) enzyme, 15 minutes, room temperature. Type of data set: biochemical. As for the experimental part:
A mixture of BABA-phosphate and CABA-phosphate (resulting from preparation of BABA-phosphate), 5 mg in 1 mL pH 8-9 NaOD/D2O is treated with 1 mg (15 units) of alkaline phosphatase (Sigma, human placenta) for 15 minutes at room temperature.
Reaction of the crude product of the reaction with alkaline phosphatase, for about ten (10) minutes, with cysteine, results in the disappearance of the first product, deprotected alkylating reagent, and appearance of a more polar product. The latter is assumed to be an adduct of the alkylating reagent and cysteine.

The nature of data set [4]: Stability of alkylating reagent in the presence of reducing agent TCEP (TLC). Type of data set: physicochemical. To be noted: 5 mM each in phosphate buffer pH 7, sixteen (16) hours, room temperature.

T1 sequence (P05187 23-506): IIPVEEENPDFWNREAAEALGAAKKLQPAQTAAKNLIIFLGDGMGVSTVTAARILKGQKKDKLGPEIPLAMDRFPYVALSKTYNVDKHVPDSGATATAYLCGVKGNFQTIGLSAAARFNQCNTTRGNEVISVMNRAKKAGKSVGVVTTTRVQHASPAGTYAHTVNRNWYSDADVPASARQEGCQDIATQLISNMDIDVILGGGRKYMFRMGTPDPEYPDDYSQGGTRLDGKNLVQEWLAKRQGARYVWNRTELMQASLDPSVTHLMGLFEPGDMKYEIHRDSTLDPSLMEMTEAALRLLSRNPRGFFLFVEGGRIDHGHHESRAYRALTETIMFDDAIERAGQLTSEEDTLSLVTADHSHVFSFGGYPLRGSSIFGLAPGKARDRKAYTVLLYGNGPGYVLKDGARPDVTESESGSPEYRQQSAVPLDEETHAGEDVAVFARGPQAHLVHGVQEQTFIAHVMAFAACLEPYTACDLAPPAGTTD

Turning to `O=C(O)c1ccc(C(=O)CBr)cc1` [BABA, bromoacetylbenzoic acid, reference compound], the “stability of BABA in solution” value in data set [1] (even at the optimum condition, pH 6.0) is “limited stability”.
In the case of `O=C(O)c1ccc(/C(=C/Cl)OP(=O)(O)O)cc1` [CABA-phosphate, 4-(chloroacetyl)benzoate enol-phosphate sodium salt], the solubility entry in data set [2] is “readily soluble”. For the same compound, the “removal of the phosphate group by alkaline phosphatase (TLC, NMR)” value in data set [3] was “removed”. In addition, the “reaction of the protected alkylating reagent with TCEP (TLC)” value in data set [4] was “resistant to reaction with TCEP”. In addition, the “% Modulation (0 to 60 μM)” value in data set [1] (5 mM in 50 mM borate buffer pH 9.0, stored @4° C., 1 wk) stood at 54%; in data set [1] (5 mM in 50 mM borate buffer pH 9.0, stored @4° C., 2 wks), 56%; in data set [1] (5 mM in 50 mM borate buffer pH 9.0, stored @4° C., 5 wks), 55%; in data set [1] (5 mM in 50 mM borate buffer pH 9.0, stored @4° C., 7 wks), 54%; in data set [1] (5 mM in 50 mM borate buffer pH 9.0, stored @4° C., 10 wks), 51%; in data set [1] (5 mM in 50 mM borate buffer pH 9.0, stored @4° C., 13 wks) it was 45%. The “% Modulation (0 to 60 μM)” value in data set [1] (5 mM in 50 mM borate buffer pH 9.0, stored @4° C., o/n) is 57%; in data set [1] (5 mM in 50 mM borate buffer pH 9.0, stored @37° C., 1 wk), 45%; in data set [1] (5 mM in 50 mM borate buffer pH 9.0, stored @37° C., 2 wks) it was 51%; in data set [1] (5 mM in 50 mM borate buffer pH 9.0, stored @37° C., 5 wks) it was 50%; in data set [1] (5 mM in 50 mM borate buffer pH 9.0, stored @37° C., 7 wks) it was 51%; in data set [1] (5 mM in 50 mM borate buffer pH 9.0, stored @37° C., 10 wks), 44%. The “% Modulation (0 to 60 μM)” value in data set [1] (5 mM in 50 mM borate buffer pH 9.0, stored @37° C., 13 wks) was 35%; in data set [1] (5 mM in 50 mM borate buffer pH 9.0, stored @37° C., o/n) it was 55%. The “shelf life compared with BABA” value in data set [1] (three-reagent protocol, Table 3) is given as “much longer shelf life than BABA”.
